The text below walks through data of patent US10538497B2, “Compounds as indoleamine 2,3-dioxygenase inhibitors” (Merck Sharp & Dohme Corp., priority 2015, dated 2020).

The target in experiment [1] is T1, IDO1 (Homo sapiens (Human), UniProt P14902). As to the kind of experiment: IDO1 Cellular Assay in Frozen HEK293 Cells Transiently Transfected with Human IDO1. Conditions: HEK293 cells transiently transfected with human IDO1; read-out: IDO1 HEK293 Cell Assay, IC50. Format: cell-based.
The target in experiment [2] is T1, IDO1. As to the kind of experiment: IDO1 Cellular Assay in Hela Cells Stimulated with IFNγ. Conditions: Hela cells stimulated with IFNγ 100 ng/mL; read-out: IDO1 HELA Cell Assay, IC50. In kind it is cell-based.
The target of experiment [3] is T1, IDO1. As to the kind of experiment: IDO1 Enzyme Assay. The conditions noted are these: HIS-tagged recombinant IDO1, 40 nM.
The mark [4] stands for this setting: read-out: IDO1 Enzyme Assay, IC50.

T1 sequence (P14902 whole entry): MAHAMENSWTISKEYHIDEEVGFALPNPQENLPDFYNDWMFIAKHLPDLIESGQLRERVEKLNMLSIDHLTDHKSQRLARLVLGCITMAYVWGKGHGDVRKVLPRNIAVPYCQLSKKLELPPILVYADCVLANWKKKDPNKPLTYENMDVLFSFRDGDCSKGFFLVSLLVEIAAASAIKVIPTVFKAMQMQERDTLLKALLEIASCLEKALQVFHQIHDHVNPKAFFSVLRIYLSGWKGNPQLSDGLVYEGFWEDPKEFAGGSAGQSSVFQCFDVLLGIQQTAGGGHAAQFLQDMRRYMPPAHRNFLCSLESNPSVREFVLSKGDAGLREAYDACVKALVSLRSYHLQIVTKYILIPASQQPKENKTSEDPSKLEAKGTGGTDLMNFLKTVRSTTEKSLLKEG

Consider `Cc1nc(CSc2nonc2C(=NO)Nc2ccc(F)c(Br)c2)no1` [Example 155, N-(3-bromo-4-fluorophenyl)-N′-hydroxy-4-{[(5-methyl-1,2,4-oxadiazol-3-yl)methyl]sulfanyl}-1,2,5-oxadiazole-3-carboximidamide], for which the half-inhibitory concentration (IC50) on IDO1 [1] turned out to be 218 nM; on IDO1 [2] it was 301 nM; at IDO1 [3] (IDO1 Enzyme Assay, IC50, nM), 77.7 nM.

Regarding `ON=C(Nc1ccc(F)c(Br)c1)c1nonc1SCc1ncon1` [Example 156, N-(3-bromo-4-fluorophenyl)-N′-hydroxy-4-[(1,2,4-oxadiazol-3-ylmethyl)sulfanyl]-1,2,5-oxadiazole-3-carboximidamide], the IC50 at IDO1 [1] was 46.9 nM; at IDO1 [2], 114 nM; on IDO1 [3] (IDO1 Enzyme Assay, IC50, nM), 58.8 nM.

`ON=C(Nc1ccc(F)c(Br)c1)c1nonc1SCc1nccs1` [Example 157, N-(3-bromo-4-fluorophenyl)-N′-hydroxy-4-[(1,3-thiazol-2-ylmethyl)sulfanyl]-1,2,5-oxadiazole-3-carboximidamide]: the IC50 turned out to be 104 nM at IDO1 [1]; 113 nM at IDO1 [2]; 63.8 nM at IDO1 [3] (IDO1 Enzyme Assay, IC50, nM).

In the case of `ON=C(Nc1ccc(F)c(Br)c1)c1nonc1SCC1CCCNC1` (stereo not drawn) [Example 158, N-(3-bromo-4-fluorophenyl)-N′-hydroxy-4-[(piperidin-3-ylmethyl)sulfanyl]-1,2,5-oxadiazole-3-carboximidamide], the IC50 on IDO1 [1] was 72 nM; at IDO1 [2], 233 nM; at IDO1 [3] (IDO1 Enzyme Assay, IC50, nM), 95.7 nM.

On to `ON=C(Nc1ccc(F)c(Br)c1)c1nonc1SCc1c[nH]cn1` [Example 159, N-(3-bromo-4-fluorophenyl)-N′-hydroxy-4-[(1H-imidazol-4-ylmethyl)sulfanyl]-1,2,5-oxadiazole-3-carboximidamide], for which the 50% inhibitory concentration (IC50) at IDO1 [1] came out at 81.7 nM; at IDO1 [2], 153 nM; at IDO1 [3] (IDO1 Enzyme Assay, IC50, nM), 105 nM.

With `ON=C(Nc1ccc(F)c(Br)c1)c1nonc1SCCF` [Example 160, N-(3-bromo-4-fluorophenyl)-4-[(2-fluoroethyl)sulfanyl]-N′-hydroxy-1,2,5-oxadiazole-3-carboximidamide], the half-inhibitory concentration (IC50) came to 61 nM at IDO1 [1]; 126 nM on IDO1 [2]; 65.7 nM on IDO1 [3] (IDO1 Enzyme Assay, IC50, nM).

For the molecule `CC#CCSc1nonc1C(=NO)Nc1ccc(F)c(Br)c1` [Example 161, N-(3-bromo-4-fluorophenyl)-4-(but-2-yn-1-ylsulfanyl)-N′-hydroxy-1,2,5-oxadiazole-3-carboximidamide], the IC50 on IDO1 [1] came to 188 nM; on IDO1 [2], 341 nM; on IDO1 [3] (IDO1 Enzyme Assay, IC50, nM) it was 169 nM.

On to `ON=C(Nc1ccc(F)c(Br)c1)c1nonc1SCC1CCOCC1` [Example 162, N-(3-bromo-4-fluorophenyl)-N′-hydroxy-4-[(tetrahydro-2H-pyran-4-ylmethyl)sulfanyl]-1,2,5-oxadiazole-3-carboximidamide], for which the half-maximal inhibitory concentration (IC50) stood at 167 nM on IDO1 [1]; 322 nM at IDO1 [2]; 111 nM on IDO1 [3] (IDO1 Enzyme Assay, IC50, nM).

`ON=C(Nc1ccc(F)c(Br)c1)c1nonc1SCCN1CCNCC1` [Example 163, N-(3-bromo-4-fluorophenyl)-N′-hydroxy-4-[(2-piperazin-1-ylethyl)sulfanyl]-1,2,5-oxadiazole-3-carboximidamide]: the IC50 is 181 nM on IDO1 [1]; 405 nM at IDO1 [2]; 161 nM at IDO1 [3] (IDO1 Enzyme Assay, IC50, nM).

Turning to `CN1CCN(CCSc2nonc2C(=NO)Nc2ccc(F)c(Br)c2)CC1` [Example 164, N-(3-bromo-4-fluorophenyl)-N′-hydroxy-4-{[2-(4-methvlpiperazin-1-yl)ethyl]sulfanyl}-1,2,5-oxadiazole-3-carboximidamide], the IC50 at IDO1 [1] is 91.5 nM; on IDO1 [2], 246 nM; on IDO1 [3] (setting [4]), 62.2 nM.

Take `OC[C@@H](O)CSc1nonc1/C(=N/O)Nc1ccc(F)c(C(F)(F)F)c1` [Example 165, 4-{[(2R)-2,3-dihydroxypropyl]sulfanyl}-N-[4-fluoro-3-(trifluoromethyl)phenyl]-N′-hydroxy-1,2,5-oxadiazole-3-carboximidamide]: the IC50 amounted to 130 nM on IDO1 [1], 159 nM at IDO1 [2] and 126 nM at IDO1 [3] (setting [4]).

Consider `OC[C@H](O)CSc1nonc1/C(=N/O)Nc1ccc(F)c(C(F)(F)F)c1` [Example 166, 4-{[(2S)-2,3-dihydroxypropyl]sulfanyl}-N-[4-fluoro-3-(trifluoromethyl)phenyl]-N′-hydroxy-1,2,5-oxadiazole-3-carboximidamide], for which the half-maximal inhibitory concentration (IC50) on IDO1 [1] worked out at 114 nM; on IDO1 [2] it was 138 nM; at IDO1 [3] (setting [4]), 126 nM.

Regarding `OC[C@H](O)CSc1nonc1/C(=N/O)Nc1ccc(F)c(C(F)F)c1` [Example 167, N-[3-(difluoromethyl)-4-fluorophenyl]-4-{[(2S)-2,3-dihydroxypropyl]sulfanyl}-N′-hydroxy-1,2,5-oxadiazole-3-carboximidamide], the half-maximal inhibitory concentration (IC50) is 110 nM on IDO1 [1], 97.3 nM on IDO1 [2] and 142 nM at IDO1 [3] (setting [4]).

Turning to `OC[C@H](O)CSc1nonc1/C(=N/O)Nc1ccc(F)c(Cl)c1` [Example 170, N-(3-chloro-4-fluorophenyl)-4-{[(2S)-2,3-dihydroxypropyl]sulfanyl}-N′-hydroxy-1,2,5-oxadiazole-3-carboximidamide], the results for the IC50 on IDO1 [1], on IDO1 [2] and on IDO1 [3] (setting [4]) were 132 nM, 110 nM and 68.4 nM, respectively.

For the molecule `ON=C(Nc1ccc(F)c(Br)c1)c1nonc1SCCn1ccnc1` [Example 172, N-(3-bromo-4-fluorophenyl)-N′-hydroxy-4-{[2-(1H-imidazol-1-yl)ethyl]sulfanyl}-1,2,5-oxadiazole-3-carboximidamide], the IC50 at IDO1 [1] worked out at 47.5 nM; on IDO1 [2] it was 43.4 nM; on IDO1 [3] (IDO1 Enzyme Assay, IC50, nM) it was 78.6 nM.

Consider `CC(CO)(CO)NC(=O)CSc1nonc1/C(=N/O)Nc1ccc(F)c(Br)c1` [Example 174, 2-({4-[N-(3-bromo-4-fluorophenyl)-N′-hydroxycarbamimidoyl]-1,2,5-oxadiazol-3-yl}sulfanyl)-N-[2-hydroxy-1-(hydroxymethyl)-1-methylethyl]acetamide], for which the concentration for half-maximal inhibition (IC50) was 113 nM on IDO1 [1], 63.6 nM on IDO1 [2] and 82.7 nM at IDO1 [3] (setting [4]).

Consider `CC(O)C(CO)NC(=O)CSc1nonc1/C(=N/O)Nc1ccc(F)c(Br)c1` (stereo not drawn) [Example 176, 2-({4-[N-(3-bromo-4-fluorophenyl)-N′-hydroxycarbamimidoyl]-1,2,5-oxadiazol-3-yl}sulfanyl)-N-[2-hydroxy-1-(hydroxymethyl)propyl]acetamide], for which the IC50 at IDO1 [1] is 182 nM; at IDO1 [2], 127 nM; at IDO1 [3] (setting [4]), 116 nM.

As for `O=C(CSc1nonc1/C(=N/O)Nc1ccc(F)c(Br)c1)N[C@H]1C[C@@H](O)[C@@H](O)C1` [Example 177, 2-({4-[N-(3-bromo-4-fluorophenyl)-N′-hydroxycarbamimidoyl]-1,2.5-oxadiazol-3-yl}sulfanyl)-N-[(1r,3R,4S)-3,4-dihydroxycyclopentyl]acetamide], the IC50 at IDO1 [1] was 411 nM; at IDO1 [2], 469 nM; on IDO1 [3] (setting [4]), 97.3 nM.

Consider `CC(=O)N[C@@H](C)CSc1nonc1/C(=N/O)Nc1ccc(F)c(C#N)c1` [Example 180, N-[(1S)-2-({4-[N-(3-cyano-4-fluorophenyl)-N′-hydroxycarbamimidoyl]-1,2,5-oxadiazol-3-yl}sulfanyl)-1-methylethyl]acetamide], for which the IC50 on IDO1 [1] was 309 nM; at IDO1 [2] it was 426 nM; at IDO1 [3] (setting [4]) it was 196 nM.

On to `CS(=O)(=O)NCCSc1nonc1/C(=N/O)Nc1ccc(F)c(C(F)F)c1` [Example 183, N-[3-(difluoromethyl)-4-fluorophenyl]-N′-hydroxy-4-({2-[(methylsulfonyl)amino]ethyl}sulfanyl)-1,2,5-oxadiazole-3-carboximidamide], for which the IC50 at IDO1 [1] is 25.6 nM; at IDO1 [2], 58.2 nM; at IDO1 [3] (setting [4]), 52.5 nM.

For the molecule `CS(=O)(=O)NCCSc1nonc1/C(=N/O)Nc1ccc(F)c(Cl)c1` [Example 184, N-(3-chloro-4-fluorophenyl)-N′-hydroxy-4-({2-[(methylsulfonyl)amino]ethyl}sulfanyl)-1,2,5-oxadiazole-3-carboximidamide], the IC50 on IDO1 [1] was found to be 16.1 nM; on IDO1 [2] it was 47.4 nM; on IDO1 [3] (setting [4]), 50.9 nM.

With `N#Cc1cc(N/C(=N\O)c2nonc2SCC(=O)NC2COC2)ccc1F` [Example 186, 2-({4-[N-(3-cyano-4-fluorophenyl)-N′-hydroxycarbamimidoyl]-1,2,5-oxadiazol-3-yl}sulfanyl)-N-oxetan-3-ylacetamide], the IC50 on IDO1 [1] was found to be 412 nM; at IDO1 [2], 322 nM; on IDO1 [3] (setting [4]) it was 180 nM.

`N#Cc1cc(N/C(=N\O)c2nonc2SCCNC(=O)[C@H]2CC2(F)F)ccc1F` [Example 187, (1R)-N-[2-({4-[N-(3-cyano-4-fluorophenyl)-N′-hydroxycarbamimidoyl]-1,2,5-oxadiazol-3-yl}sulfanyl)ethyl]-2,2-difluorocyclopropanecarboxamide]: the results for the IC50 at IDO1 [1], on IDO1 [2] and on IDO1 [3] (setting [4]) were 140 nM, 272 nM and 86 nM, respectively.

Turning to `N#Cc1cc(N/C(=N\O)c2nonc2SCCNC(=O)[C@@H]2CC2(F)F)ccc1F` [Example 188, (1S)-N-[2-({4-[N-(3-cyano-4-fluorophenyl)-N′-hydroxycarbamimidoyl]-1,2,5-oxadiazol-3-yl}sulfanyl)ethyl]-2,2-difluorocyclopropanecarboxamide], the IC50 on IDO1 [1] was 87.7 nM; at IDO1 [2] it was 173 nM; at IDO1 [3] (setting [4]), 87.9 nM.

Consider `CN(C)CCSc1nsnc1/C(=N/O)Nc1ccc(F)c(Br)c1` [Example 209, N-(3-bromo-4-fluorophenyl)-4-{[2-(dimethylamino)ethyl]sulfanyl}-N′-hydroxy-1,2,5-thiadiazole-3-carboximidamide], for which the 50% inhibitory concentration (IC50) on IDO1 [1] was found to be 770 nM; on IDO1 [2], 968 nM; at IDO1 [3] (setting [4]), 1280 nM.

Usually IC50 stands for the midpoint of a concentration-inhibition curve.
